Measurements reported in PubChem BioAssay (NCI).
Values joined by “and” are separate entries in the source; they are usually repeats but may differ in a detail not shown here. Identical values can stand only once.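 Briefly, cells in 96-well plates were exposed to five compound concentrations for 48 h, and endpoints were estimated by linear interpolation. GI50 marks 50% less growth. TGI: total growth inhibition.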

Assays:
Test in all cases: NCI tumour cell line growth inhibition, 48 h
[1] = test system: SN12C renal
[2] = test system: NCI-H522 lung
[3] = test system: HCT-116 colon
[4] = test system: HS 578T breast
[5] = test system: NCI/ADR-RES ovarian
[6] = test system: SK-MEL-5 melanoma
[7] = test system: NCI-H226 lung
[8] = test system: HT29 colon
[9] = test system: M14 melanoma
[10] = test system: COLO 205 colon

| SMILES | TGI [1] | TGI [2] | TGI [3] | TGI [4] | TGI [5] | TGI [6] | TGI [7] | TGI [8] | TGI [9] | TGI [10] | GI50 [1] | GI50 [10] | GI50 [2] | GI50 [3] | GI50 [4] | GI50 [5] | GI50 [6] | GI50 [7] | GI50 [8] | GI50 [9] |
| --- | --- | --- | --- | --- | --- | --- | --- | --- | --- | --- | --- | --- | --- | --- | --- | --- | --- | --- | --- | --- |
| CCOc1ccc2nc(NC(=O)C(=O)C(c3cnc4ccccc4n3)[N+](=O)[O-])sc2c1 (stereo unspecified) | > 100 µM | > 100 µM | > 100 µM | > 100 µM | > 100 µM | > 100 µM | > 100 µM | > 100 µM | > 100 µM | – | – | – | – | – | – | – | – | – | – | – |
| Cc1cccc(NC(=O)c2cccc([N+](=O)[O-])c2O)c1C | > 100 µM | 58 µM | > 100 µM | > 100 µM | > 100 µM | 27.6 µM | > 87.7 µM | > 100 µM | > 100 µM | 32.9 µM | – | – | – | – | – | – | – | – | – | – |
| Cc1cc(N2CCOCC2)cc2[nH]c(-c3c(NC[C@@H](O)c4cccc(Cl)c4)cc[nH]c3=O)nc12 | 12.7 µM | 6.18 µM | 6.67 µM | 4.42 µM | 12.3 µM | 11.3 µM | 5.89 µM | 1.81 µM | 7.66 µM | 0.642 µM | 0.798 µM | 0.118 µM | 1.78 µM | 1.64 µM | 1.04 µM | 2.83 µM | 2.13 µM | 0.361 µM | 0.0672 µM | 0.925 µM |
| Cc1cnc(C(=O)NNc2nc3sc4c(c3c(=O)n2C)C(C)CCC4)cn1 (stereo unspecified) | 4.55 µM | 4.62 µM | 7.06 µM | 17.1 µM | 10.8 µM | 1.72 µM | 3.03 µM | 6.19 µM | 2.43 µM | 1.33 µM | 0.51 µM | 0.296 µM | 0.328 µM | 0.26 µM | 1.56 µM | 0.392 µM | 0.363 µM | 0.404 µM | 0.788 µM | 0.284 µM |
| C=C1CC2(OC1=O)C(=O)Nc1ccccc12 (stereo unspecified) | 14.1 µM | 2.03 µM | 10.5 µM | 56.6 µM | 11.2 µM | 18.8 µM | 5.24 µM | 11 µM | 10 µM | 2.41 µM | 3.74 µM | 0.885 µM | 0.542 µM | 3.16 µM | 11 µM | 2.86 µM | 6.13 µM | 1.85 µM | 3.03 µM | 2.71 µM |
| C#CCOc1cccc(Nc2ncnc3cc(NC(=O)CCl)ccc23)c1 | 17.3 µM | 3.34 µM | 10.2 µM | 26.9 µM | 42.9 µM | 19.4 µM | 32.7 µM | 6.11 µM | 20.4 µM | 19.8 µM | 4.1 µM | 5.04 µM | 1.46 µM | 1.96 µM | 3.61 µM | 4.13 µM | 6.31 µM | 10.7 µM | 2.08 µM | 5.11 µM |
| COc1ccc2c(c1)C(=O)c1c-2n(CCCI)c(=O)c2cc([N+](=O)[O-])ccc12 | – | 50 µM and 98.8 µM | 1.02 µM and 1.94 µM | 31.2 µM and 35.3 µM | – | 0.438 µM and 0.468 µM | 6.02 µM and 14.7 µM | – | 0.59 µM and 1.35 µM | 21.6 µM and 55.3 µM | 0.105 µM and 0.312 µM | 1.77 µM and 1.12 µM | – | 0.0721 µM and 0.0453 µM | 7.67 µM and 3.85 µM | 0.14 µM and 0.122 µM | 0.109 µM and 0.124 µM | 0.671 µM and 0.89 µM | 0.16 µM and 0.437 µM | 0.133 µM and 0.057 µM |
| COc1cc(Nc2ncc(F)c(Nc3ccc4c(n3)N(COP(=O)(O)O)C(=O)C(C)(C)O4)n2)cc(OC)c1OC | 16.6 µM and > 10 µM | 7.02 µM and 7.1 µM | 23.5 µM and > 10 µM | 4.27 µM and 0.59 µM | 17.2 µM and > 10 µM | 33.3 µM and > 10 µM | 4.78 µM and 2.32 µM | 10.7 µM and > 10 µM | 29.4 µM and > 10 µM | 5.37 µM and 3.59 µM | 1.01 µM and 1.05 µM | 2.03 µM and 1.31 µM | 1.53 µM and 1.24 µM | 3.25 µM and 3.02 µM | 0.538 µM and 0.173 µM | 2.99 µM and 3.01 µM | 5.51 µM and 3.54 µM | 0.876 µM and 0.38 µM | 1.66 µM | 2.71 µM and 2.88 µM |
| CC(=O)OCc1cc2ccccc2nc1C(Br)(Br)Br | 26.3 µM | 34 µM | 31.6 µM | > 100 µM | 44 µM | 23.9 µM | 60.8 µM | 44.9 µM | 55 µM | 55.2 µM | – | – | – | – | – | – | – | – | – | – |
| Cc1ncc(C(=O)Nc2ccc(CN3CCN(C)CC3)c(C(F)(F)F)c2)cc1C#Cc1cnc(N)cc1C#N | 2.32 µM | 3.24 µM | 2.92 µM | 1.72 µM | 5.24 µM | 2.76 µM | 2.66 µM | 2.38 µM | 0.4 µM | 2.32 µM | 0.305 µM | 0.0538 µM | 0.405 µM | 0.182 µM | 0.204 µM | 2.12 µM | 0.711 µM | 0.263 µM | 0.0481 µM | 0.049 µM |
| CN(C)CCCNC(=O)c1cc(NC(=O)c2cc(NC(=O)CCNS(=O)(=O)c3ccc4c(c3)C(=O)c3ccccc3C4=O)cn2C)cn1C | > 100 µM | > 100 µM | – | > 100 µM | > 100 µM | > 100 µM | > 100 µM | > 100 µM | – | > 100 µM | > 100 µM | > 100 µM | > 100 µM | – | > 100 µM | > 100 µM | > 100 µM | > 100 µM | > 100 µM | – |
| CSc1nc(SC)c2c(CO)c(Br)n(Cc3ccccc3)c2n1 | > 100 µM | 68.8 µM | > 100 µM | 58.9 µM | > 100 µM | > 100 µM | 39.3 µM | > 100 µM | > 100 µM | > 100 µM | – | – | – | – | – | – | – | – | – | – |
| O=c1c(-c2ccccc2)coc2cc(OC/C(=N/O)c3ccccc3)ccc12 | 39.9 µM | 64.4 µM | 68.6 µM | 86 µM | 60 µM | 24.6 µM | > 100 µM | 53.2 µM | 39.7 µM | 72.6 µM | 18 µM | 26.5 µM | 7.54 µM | 11.2 µM | 34.4 µM | 17.8 µM | 10.9 µM | 23.4 µM | 14.7 µM | 14.4 µM |
